{
  "source": "paper PMC10957570",
  "about": "“Coniferyl ferulate alleviate xylene-caused hematopoietic stem and progenitor cell toxicity by Mgst2” (Frontiers in Pharmacology, 2024)",
  "target": "T1, Mgst2 (Mus musculus, UniProt A2RST1)",
  "T1 construct": "native protein in lysate of CD117+ bone marrow cells, captured on CF chip and identified by LC-MS/MS",
  "T1 sequence (A2RST1 whole entry)": "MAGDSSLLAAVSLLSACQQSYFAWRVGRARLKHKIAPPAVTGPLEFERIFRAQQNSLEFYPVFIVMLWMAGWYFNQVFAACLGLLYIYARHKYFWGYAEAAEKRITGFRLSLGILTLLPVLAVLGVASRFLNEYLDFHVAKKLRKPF",
  "assay": "SPR capture from cell lysate on CF chip, LC-MS/MS identification",
  "format": "biochemical",
  "conditions": "CD117+ bone marrow cell lysate; CF immobilised; excess free CF lowered total SPR signal",
  "data": [
    {"smiles": "COc1cc(/C=C/COC(=O)/C=C/c2ccc(O)c(OC)c2)ccc1O", "note": "[Coniferyl ferulate]", "values": [
      {"measurement": "SPR capture from cell lysate on CF chip, LC-MS/MS identification", "result": "we found that Mgst2 was one of the targets of CF"}
    ]}
  ]
}
